Laboratory results as given in patent US20260193264A1, “BENZOYPARAZINE PYRAZINES AND THEIR USES” (FOGHORN THERAPEUTICS INC., priority 2022, published 2026).

How the values were obtained:
[1] = target: T1, HiBit-BRG1 fusion protein in stable HeLa cell line expressing HiBit-BRG1 and LgBit (Homo sapiens, UniProt P51532); test: HiBiT-BRG1 cell-based degradation assay (Nano-Glo HiBiT, 24 h); conditions: HeLa HiBit-BRG1/LgBit cells; for DC50: read-out: BRMG1 HiBit Degradation IC50; for Dmax: top dose 30 μM, read-out: BRG1 HiBit Degradation Maximum (%)
T1 construct: expressed in transfected cells
T1 sequence (P51532 whole entry, the tested form may be a part): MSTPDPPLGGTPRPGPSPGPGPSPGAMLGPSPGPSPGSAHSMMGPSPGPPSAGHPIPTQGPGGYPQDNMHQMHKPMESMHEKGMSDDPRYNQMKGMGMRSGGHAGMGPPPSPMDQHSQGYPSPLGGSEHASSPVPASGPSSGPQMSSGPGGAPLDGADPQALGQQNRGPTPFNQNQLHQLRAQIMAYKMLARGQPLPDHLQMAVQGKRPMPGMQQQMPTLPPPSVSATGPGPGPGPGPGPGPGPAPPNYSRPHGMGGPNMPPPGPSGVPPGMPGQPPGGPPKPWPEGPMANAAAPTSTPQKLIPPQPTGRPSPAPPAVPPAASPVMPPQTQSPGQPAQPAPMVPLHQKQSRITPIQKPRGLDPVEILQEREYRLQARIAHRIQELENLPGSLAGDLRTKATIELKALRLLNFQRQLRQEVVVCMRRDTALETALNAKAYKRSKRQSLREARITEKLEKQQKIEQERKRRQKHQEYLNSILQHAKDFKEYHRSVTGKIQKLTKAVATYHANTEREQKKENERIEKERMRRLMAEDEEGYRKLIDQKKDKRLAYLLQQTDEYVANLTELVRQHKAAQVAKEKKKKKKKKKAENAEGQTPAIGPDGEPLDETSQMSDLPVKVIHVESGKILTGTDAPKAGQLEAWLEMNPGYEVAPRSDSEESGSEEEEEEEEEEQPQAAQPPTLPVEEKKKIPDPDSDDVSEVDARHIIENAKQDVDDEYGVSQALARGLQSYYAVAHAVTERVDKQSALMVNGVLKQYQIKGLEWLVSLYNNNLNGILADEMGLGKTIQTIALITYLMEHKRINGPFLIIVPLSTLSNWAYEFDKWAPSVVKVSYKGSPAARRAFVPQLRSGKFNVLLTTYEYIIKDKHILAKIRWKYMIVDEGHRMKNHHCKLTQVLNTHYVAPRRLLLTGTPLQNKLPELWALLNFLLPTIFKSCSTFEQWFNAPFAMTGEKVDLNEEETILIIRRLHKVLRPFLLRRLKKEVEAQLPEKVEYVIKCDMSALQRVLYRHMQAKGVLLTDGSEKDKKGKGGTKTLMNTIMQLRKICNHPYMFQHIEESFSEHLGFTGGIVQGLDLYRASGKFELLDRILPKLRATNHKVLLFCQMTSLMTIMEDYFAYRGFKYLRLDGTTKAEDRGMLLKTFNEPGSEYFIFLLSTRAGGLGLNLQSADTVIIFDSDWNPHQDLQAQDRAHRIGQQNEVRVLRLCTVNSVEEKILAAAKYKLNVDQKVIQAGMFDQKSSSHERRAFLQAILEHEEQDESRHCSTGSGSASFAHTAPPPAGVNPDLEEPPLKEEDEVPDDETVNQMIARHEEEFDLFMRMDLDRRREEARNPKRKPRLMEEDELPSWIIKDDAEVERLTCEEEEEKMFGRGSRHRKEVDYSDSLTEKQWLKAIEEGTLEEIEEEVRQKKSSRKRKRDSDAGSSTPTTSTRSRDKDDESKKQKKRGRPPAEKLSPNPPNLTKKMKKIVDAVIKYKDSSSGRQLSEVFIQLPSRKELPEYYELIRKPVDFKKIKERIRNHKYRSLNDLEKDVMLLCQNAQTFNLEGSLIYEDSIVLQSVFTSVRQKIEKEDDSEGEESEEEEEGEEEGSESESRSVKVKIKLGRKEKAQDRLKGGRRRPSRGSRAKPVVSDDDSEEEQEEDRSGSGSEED
Method in brief: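 Stable HeLa line co-expressing HiBiT-BRG1 and LgBiT, compound-treated 24 h; luminescence read after Nano-Glo HiBiT lytic reagent. % degradation normalised between DMSO (high control) and 2 μM reference BRM/BRG1 degrader (low control).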

[2] = target: T2, HiBiT-BRM fusion protein in stable HeLa cell line (Homo sapiens, UniProt P51531); test: HiBiT-BRM cell-based degradation assay (Nano-Glo HiBiT Lytic Detection, 24 h); set-up: DC50: scale not given here; conditions: HeLa HiBiT-BRM cells; for DC50: read-out: BRM HiBit Degradation IC50; for BRM HiBit Degradation Maximum (%): top dose 30 μM
T2 construct: expressed in transfected cells
T2 sequence (P51531 whole entry, the tested form may be a part): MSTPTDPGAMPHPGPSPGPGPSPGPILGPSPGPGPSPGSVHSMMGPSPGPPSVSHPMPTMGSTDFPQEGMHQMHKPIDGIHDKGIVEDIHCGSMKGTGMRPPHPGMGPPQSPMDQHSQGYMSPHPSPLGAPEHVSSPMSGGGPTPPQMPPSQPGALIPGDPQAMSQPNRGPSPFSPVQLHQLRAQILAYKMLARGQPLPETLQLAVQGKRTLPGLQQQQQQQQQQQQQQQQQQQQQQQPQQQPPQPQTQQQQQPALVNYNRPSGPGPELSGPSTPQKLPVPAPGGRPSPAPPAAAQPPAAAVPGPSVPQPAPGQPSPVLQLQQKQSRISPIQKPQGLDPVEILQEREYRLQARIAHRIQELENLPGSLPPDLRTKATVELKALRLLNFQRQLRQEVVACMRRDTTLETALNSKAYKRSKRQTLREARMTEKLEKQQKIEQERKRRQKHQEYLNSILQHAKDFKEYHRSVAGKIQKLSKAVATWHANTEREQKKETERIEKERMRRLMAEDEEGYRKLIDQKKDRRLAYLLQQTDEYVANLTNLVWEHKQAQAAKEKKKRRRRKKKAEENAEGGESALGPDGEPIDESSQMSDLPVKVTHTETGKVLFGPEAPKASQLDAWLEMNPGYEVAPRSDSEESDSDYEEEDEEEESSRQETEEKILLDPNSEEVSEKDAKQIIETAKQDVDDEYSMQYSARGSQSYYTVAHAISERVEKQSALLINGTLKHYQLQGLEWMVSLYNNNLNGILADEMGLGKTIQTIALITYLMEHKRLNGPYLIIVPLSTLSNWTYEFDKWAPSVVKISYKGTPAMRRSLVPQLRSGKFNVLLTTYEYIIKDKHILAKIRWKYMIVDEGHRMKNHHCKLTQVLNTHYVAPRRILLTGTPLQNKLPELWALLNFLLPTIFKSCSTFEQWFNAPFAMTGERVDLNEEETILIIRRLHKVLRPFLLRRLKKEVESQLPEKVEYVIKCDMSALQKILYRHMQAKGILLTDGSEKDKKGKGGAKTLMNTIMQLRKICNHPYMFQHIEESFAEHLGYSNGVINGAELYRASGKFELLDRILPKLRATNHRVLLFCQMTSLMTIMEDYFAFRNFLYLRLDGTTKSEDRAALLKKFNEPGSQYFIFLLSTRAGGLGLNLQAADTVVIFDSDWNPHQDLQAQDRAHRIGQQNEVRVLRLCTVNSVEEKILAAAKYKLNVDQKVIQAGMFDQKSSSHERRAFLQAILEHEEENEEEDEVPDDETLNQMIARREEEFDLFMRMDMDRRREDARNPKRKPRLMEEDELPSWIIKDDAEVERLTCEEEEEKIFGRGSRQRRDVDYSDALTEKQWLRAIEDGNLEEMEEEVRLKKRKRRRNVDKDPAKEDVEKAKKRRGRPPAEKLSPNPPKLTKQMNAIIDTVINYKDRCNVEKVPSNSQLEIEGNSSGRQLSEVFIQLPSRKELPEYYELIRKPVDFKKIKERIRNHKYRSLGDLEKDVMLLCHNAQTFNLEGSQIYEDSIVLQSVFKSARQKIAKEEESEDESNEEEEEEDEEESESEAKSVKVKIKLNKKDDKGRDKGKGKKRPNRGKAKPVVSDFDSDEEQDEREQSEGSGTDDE
Method in brief: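 Stable HiBiT-BRM HeLa cells were treated with 10-point 3-fold serial dilutions (30 μM final top dose, duplicate) for 24 h, then lysed with LgBiT-containing detection reagent and luminescence read. Degradation % was normalised to DMSO (high control) and 2 μM reference BRM/BRG1 degrader (low control).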

| SMILES | DC50 [1] [nM] | Dmax [1] [%] | DC50 [2] [nM] | BRM HiBit Degradation Maximum (%) [2] |
| --- | --- | --- | --- | --- |
| Cc1ncsc1-c1ccc([C@H](C)NC(=O)[C@H]2C[C@H](O)CN2C(=O)C(c2cc(N3C[C@@H]4C[C@H]3CN4c3ccc4cc(-c5ccccc5O)nnc4c3)no2)C(C)C)cc1 (stereo partly drawn) [Compound 224, (2R,4S)-4-hydroxy-1-(2-(3-((1S,4S)-5-(3-(2-hydroxyphenyl)cinnolin-7-yl)-2,5-diazabicyclo[2.2.1]heptan-2-yl)isoxazol-5-yl)-3-methylbutanoyl)-N-((S)-1-(4-(4-methylthiazol-5-yl)phenyl)ethyl)pyrrolidine-2-carboxamide] | > 10 | > 75 | < 10 | A (“A” indicates maximum degradation ≥75%) |
| Cc1ncsc1-c1ccc([C@H](C)NC(=O)[C@@H]2C[C@@H](O)CN2C(=O)C(c2cc(N3CCC(C4CN(c5ccc6cc(-c7ccccc7O)nnc6c5)C4)CC3)no2)C(C)C)cc1 (stereo partly drawn) [Compound 225, (2S,4R)-4-hydroxy-1-(2-(3-(4-(1-(3-(2-hydroxyphenyl)cinnolin-7-yl)azetidin-3-yl)piperidin-1-yl)isoxazol-5-yl)-3-methylbutanoyl)-N-((S)-1-(4-(4-methylthiazol-5-yl)phenyl)ethyl)pyrrolidine-2-carboxamide] | > 10 | > 75 | < 10 | A (“A” indicates maximum degradation ≥75%) |
| Cc1ncsc1-c1ccc([C@H](C)NC(=O)[C@@H]2C[C@@H](O)CN2C(=O)C(c2cc(N3C[C@@H]4CN(c5ccc6cc(-c7ccccc7O)nnc6c5)C[C@H]4C3)no2)C(C)C)cc1 (stereo partly drawn) [Compound 226, (2S,4R)-4-hydroxy-1-(2-(3-((3aS,6aS)-5-(3-(2-hydroxyphenyl)cinnolin-7-yl)hexahydropyrrolo[3,4-c]pyrrol-2(1H)-yl)isoxazol-5-yl)-3-methylbutanoyl)-N-((S)-1-(4-(4-methylthiazol-5-yl)phenyl)ethyl)pyrrolidine-2-carboxamide] | – | < 50 | > 10 | A (“A” indicates maximum degradation ≥75%) |
| CC(C)[C@@H](C(=O)N1C[C@H](O)C[C@H]1C(=O)N[C@@H](C)c1ccc(F)cc1)c1cc(N2CC3(CC(c4cc5nnc(-c6ccccc6O)cc5cc4C#N)C3)C2)no1 [Compound 227, (2S,4R)-1-((R)-2-(3-(6-(6-cyano-3-(2-hydroxyphenyl)cinnolin-7-yl)-2-azaspiro[3.3]heptan-2-yl)isoxazol-5-yl)-3-methylbutanoyl)-N-((S)-1-(4-fluorophenyl)ethyl)-4-hydroxypyrrolidine-2-carboxamide] | > 100 | > 50 | > 100 | A (“A” indicates maximum degradation ≥75%) |
| Cc1ncsc1-c1ccc([C@H](C)NC(=O)[C@@H]2C[C@@H](O)CN2C(=O)[C@@H](c2cc(N3CC4=C(CN(c5ccc6cc(-c7ccccc7O)nnc6c5)C4)C3)no2)C(C)C)cc1 [Compound 228, (2S,4R)-4-hydroxy-1-((R)-2-(3-(5-(3-(2-hydroxyphenyl)cinnolin-7-yl)-3,4,5,6-tetrahydropyrrolo[3,4-c]pyrrol-2(1H)-yl)isoxazol-5-yl)-3-methylbutanoyl)-N-((S)-1-(4-(4-methylthiazol-5-yl)phenyl)ethyl)pyrrolidine-2-carboxamide] | < 10 | > 75 | < 10 | A (“A” indicates maximum degradation ≥75%) |
| Cc1ncsc1-c1ccc([C@H](C)NC(=O)[C@@H]2C[C@@H](O)CN2C(=O)[C@@H](c2cc(N3CC4=C(CN(c5ccc6nnc(-c7ccccc7O)cc6c5)C4)C3)no2)C(C)C)cc1 [Compound 229, (2S,4R)-4-hydroxy-1-((R)-2-(3-(5-(3-(2-hydroxyphenyl)cinnolin-6-yl)-3,4,5,6-tetrahydropyrrolo[3,4-c]pyrrol-2(1H)-yl)isoxazol-5-yl)-3-methylbutanoyl)-N-((S)-1-(4-(4-methylthiazol-5-yl)phenyl)ethyl)pyrrolidine-2-carboxamide] | < 10 | > 75 | < 10 | A (“A” indicates maximum degradation ≥75%) |
| Cc1ncsc1-c1ccc([C@H](C)NC(=O)[C@@H]2C[C@@H](O)CN2C(=O)[C@H](C(C)C)n2cc(C3CC4(CC(c5ccc6nnc(-c7ccccc7O)cc6c5)C4)C3)nn2)cc1 (stereo partly drawn) [Compound 230, (2S,4R)-4-hydroxy-1-((S)-2-(4-(6-(3-(2-hydroxyphenyl)cinnolin-6-yl)spiro[3.3]heptan-2-yl)-1H-1,2,3-triazol-1-yl)-3-methylbutanoyl)-N-((S)-1-(4-(4-methylthiazol-5-yl)phenyl)ethyl)pyrrolidine-2-carboxamide] | > 10 | > 75 | < 10 | A (“A” indicates maximum degradation ≥75%) |
| Cc1ncsc1-c1ccc([C@H](C)NC(=O)[C@@H]2C[C@@H](O)CN2C(=O)[C@@H](c2cc(-c3cnc(N4CC5(CN(c6ccc7cc(-c8ccccc8O)nnc7c6)C5)C4)nc3)no2)C(C)C)cc1 [Compound 231, (2S,4R)-4-hydroxy-1-((R)-2-(3-(2-(6-(3-(2-hydroxyphenyl)cinnolin-7-yl)-2,6-diazaspiro[3.3]heptan-2-yl)pyrimidin-5-yl)isoxazol-5-yl)-3-methylbutanoyl)-N-((S)-1-(4-(4-methylthiazol-5-yl)phenyl)ethyl)pyrrolidine-2-carboxamide] | < 10 | > 75 | < 10 | A (“A” indicates maximum degradation ≥75%) |
| Cc1ncsc1-c1ccc([C@H](C)NC(=O)[C@@H]2C[C@@H](O)CN2C(=O)[C@@H](c2cc(N3CC4(CN(Cc5ccc6cc(-c7ccccc7O)nnc6c5)C4)C3)no2)C(C)C)cc1 [Compound 232, (2S,4R)-4-hydroxy-1-((R)-2-(3-(6-((3-(2-hydroxyphenyl)cinnolin-7-yl)methyl)-2,6-diazaspiro[3.3]heptan-2-yl)isoxazol-5-yl)-3-methylbutanoyl)-N-((S)-1-(4-(4-methylthiazol-5-yl)phenyl)ethyl)pyrrolidine-2-carboxamide] | – | < 50 | > 10 | A (“A” indicates maximum degradation ≥75%) |
| Cc1ncsc1-c1ccc([C@H](C)NC(=O)[C@@H]2C[C@@H](O)CN2C(=O)C(C(C)C)n2cc(N3CCC4(CCN(c5ccc6cc(-c7ccccc7O)nnc6c5)CC4)C3)nn2)cc1 (stereo partly drawn) [Compound 233, (2S,4R)-4-hydroxy-1-(2-(4-(8-(3-(2-hydroxyphenyl)cinnolin-7-yl)-2,8-diazaspiro[4.5]decan-2-yl)-1H-1,2,3-triazol-1-yl)-3-methylbutanoyl)-N-((S)-1-(4-(4-methylthiazol-5-yl)phenyl)ethyl)pyrrolidine-2-carboxamide] | < 10 | > 75 | < 10 | A (“A” indicates maximum degradation ≥75%) |
| Cc1ncsc1-c1ccc([C@H](C)NC(=O)[C@@H]2C[C@@H](O)CN2C(=O)C(C(C)C)n2cc(N3CCC4(CC3)CCN4c3ccc4cc(-c5ccccc5O)nnc4c3)nn2)cc1 (stereo partly drawn) [Compound 234, (2S,4R)-4-hydroxy-1-(2-(4-(1-(3-(2-hydroxyphenyl)cinnolin-7-yl)-1,7-diazaspiro[3.5]nonan-7-yl)-1H-1,2,3-triazol-1-yl)-3-methylbutanoyl)-N-((S)-1-(4-(4-methylthiazol-5-yl)phenyl)ethyl)pyrrolidine-2-carboxamide] | > 10 | > 50 | < 10 | A (“A” indicates maximum degradation ≥75%) |
| Cc1ncsc1-c1ccc([C@H](C)NC(=O)[C@@H]2C[C@@H](O)CN2C(=O)C(C(C)C)n2cc(N3CCC(C4CN(c5ccc6cc(-c7ccccc7O)nnc6c5)C4)C3)nn2)cc1 (stereo partly drawn) [Compound 235, (2S,4R)-4-hydroxy-1-(2-(4-(3-(1-(3-(2-hydroxyphenyl)cinnolin-7-yl)azetidin-3-yl)pyrrolidin-1-yl)-1H-1,2,3-triazol-1-yl)-3-methylbutanoyl)-N-((S)-1-(4-(4-methylthiazol-5-yl)phenyl)ethyl)pyrrolidine-2-carboxamide] | > 10 | > 75 | < 10 | A (“A” indicates maximum degradation ≥75%) |
| CC(C)[C@@H](C(=O)N1C[C@H](O)C[C@H]1C(=O)N[C@@H](C)c1ccc(F)cc1)c1cc(N2CC3(C2)CN(c2cc4nnc(-c5ccccc5O)cc4cc2C(F)F)C3)no1 [Compound 236, (2S,4R)-1-((R)-2-(3-(6-(6-(difluoromethyl)-3-(2-hydroxyphenyl)cinnolin-7-yl)-2,6-diazaspiro[3.3]heptan-2-yl)isoxazol-5-yl)-3-methylbutanoyl)-N-((S)-1-(4-fluorophenyl)ethyl)-4-hydroxypyrrolidine-2-carboxamide] | – | < 50 | > 10 | A (“A” indicates maximum degradation ≥75%) |
| CCOc1cc2cc(-c3ccccc3O)nnc2cc1N1CC2(CN(c3cc([C@H](C(=O)N4C[C@H](O)C[C@H]4C(=O)N[C@@H](C)c4ccc(-c5scnc5C)cc4)C(C)C)on3)C2)C1 [Compound 237, (2S,4R)-1-((R)-2-(3-(6-(6-ethoxy-3-(2-hydroxyphenyl)cinnolin-7-yl)-2,6-diazaspiro[3.3]heptan-2-yl)isoxazol-5-yl)-3-methylbutanoyl)-4-hydroxy-N-((S)-1-(4-(4-methylthiazol-5-yl)phenyl)ethyl)pyrrolidine-2-carboxamide] | < 10 | > 75 | < 10 | A (“A” indicates maximum degradation ≥75%) |
